Results on six compounds are retold here after publication PMC10780011 (2023).

Experiment [1] deals with d(5′-CGCGAATTCGCG-3′)2 (DNA, duplex) CGCGAATTCGCG
The experiment can be described thus: ethidium bromide displacement, fluorescence quenching, double-log plot. Particulars: 100 mM phosphate; pH 7.0, 298 K; apparent; ethidium bromide displaced; 20 μM DNA.

The test system is the same in experiment [2]. The experiment can be described thus: 1H NMR titration, NOESY. Particulars: 100 mM phosphate, pH 7.0, 298 K, H2O:D2O 9:1.

As for `[Ru+2].[Ru+2].[Ru+2].c1cc[cH-]c1.c1cc[cH-]c1.c1cc[cH-]c1.c1ccc(-c2ccc(-c3ccc(-c4ccccc4)cc3)cc2)cc1`, in experiment [1], the Kb is 2.803 ± 0.121 × 10^3 M^−1.

In the case of `[Ru+2].[Ru+2].c1cc[cH-]c1.c1cc[cH-]c1.c1ccc(-c2ccc(-c3ccc(-c4ccccc4)cc3)cc2)cc1`, in experiment [2] (minor and major groove, non-specific), the binding entry is listed as “yes”. In addition, the Kb in experiment [1] was 5.933 ± 0.001 × 10^3 M^−1. Take `[Ru+2].[Ru+2].c1cc[cH-]c1.c1cc[cH-]c1.c1ccc(-c2ccc(-c3ccccc3)cc2)cc1`: the Kb in experiment [1] was 0.815 ± 0.001 × 10^3 M^−1. Take `[Ru+2].c1cc[cH-]c1.c1ccc(-c2ccc(-c3ccc(-c4ccccc4)cc3)cc2)cc1`: the binding result in experiment [2] (10 mM NaCl, partial intercalation T7/T8 and groove, precipitates without NaCl) is given as “yes”. In experiment [1], the Kb is on record as 8.111 ± 0.001 × 10^3 M^−1.

With `[Ru+2].c1cc[cH-]c1.c1ccc(-c2ccc(-c3ccccc3)cc2)cc1`, the Kb in experiment [1] is recorded as 3.532 ± 0.001 × 10^3 M^−1.

Regarding `[Ru+2].c1cc[cH-]c1.c1ccc(-c2ccccc2)cc1`, the Kb in experiment [1] is reported as 2.330 ± 0.001 × 10^3 M^−1.
